Source: patent US11464768B2, “Pimavanserin alone or in combination for use in the treatment of Alzheimer's disease psychosis” (ACADIA Pharmaceuticals Inc., priority 2016, dated 2022)

Columns and labels:
[1] = test system: hyperactivity induced by the N-methyl-D-aspartate antagonist MK-801; settings: mice; effective in these models at oral doses of 3 and 10 mg/kg; cited from earlier work
ADP patients [2] = assay: Same twelve-week study: safety assessment (adverse events); type: in vivo, human; settings: for tolerability and safety profile: 34 mg once daily for twelve weeks, 181 patients in safety assessment
Experimental: Each patient participated in a 3-week screening period, a 12-week double-blind treatment period, and a 4-week follow-up period. The maximum duration of the study for each patient was approximately 19 weeks. Pimavanserin was administered in tablet form, once daily by mouth in 34 mg doses (2 tablets of 17 mg pimavanserin), equivalent to 40 mg pimavanserin tartrate. (2 tablets of 20 mg pimavanserin tartrate) Placebo was administered with visibly matching tablets, using the same route and regimen. The safety of subjects was assessed by monitoring adverse events, physical examinations, vital signs, clinical laboratory tests (hematology, clinical chemistry, and urinalysis), and electrocardiograms. Furthermore cognitive status was assessed via MMSE.
The results of the study were obtained from a majority of the 181 patients, some of the patients were excluded from the endpoint results but all 181 patients were included in the safety assessment.

ADP patients [3] = assay: Same twelve-week study: NPI-NH Agitation/Aggression subscale (Domain C); type: in vivo, human; settings: pimavanserin arm; placebo arm 0.47
Source text: To determine the score for a given domain, the caregivers rate frequency and severity of the resident's behavior for that particular domain. The frequency is rated on a 0-4 point scale. For example, the frequency is rated as a) 0 for not present; b) 1 for occasional; c) 2 for often; d) 3 for frequent; and e) 4 for very frequent occurrence of the behavior in question. The severity is rated on a 1-3 point scale. For example, the severity is rated as a) 1 for mild; b) 2 for moderate; and 3 for severe. The score of each domain is determined by multiplying the frequency rating score by the severity rating score. The score of each domain ranges from 0 to 12.
A twelve-week, randomized, double-blind, placebo-controlled, single-center study was conducted in ADP patients in nursing homes. […]
Nursing home staff administered the study drug to the patient each morning as a single oral dose (2×17 mg tablets) beginning within 24 hours of completion of all baseline assessments (Day 1). […] Behavioral symptoms were assessed using the NPI-NH Total and Individual Behavioral Domain scores and the Cohen-Mansfield Agitation Inventory—Short Form (CMAI-SF). […] In addition, evaluation of activities of daily living (ADL) was evaluated using the Alzheimer's Disease Cooperative Study-ADL instrument (ADCS-ADL). […]

CC(C)COc1ccc(CNC(=O)N(Cc2ccc(F)cc2)C2CCN(C)CC2)cc1 [Pimavanserin, N-(1-methylpiperidin-4-yl)-N-(4-fluorophenylmethyl)-N′-(4-(2-methylpropyloxy)phenylmethyl)carbamide]
attenuation of hyperactivity induced by MK-801 [1]: active
tolerability and safety profile (ADP patients [2]): safe and well tolerated
tolerability and safety profile (ADP patients [2]; listed as pimavanserin): well tolerated
effect on cognitive function or motor functions (ADP patients [2]; pimavanserin arm (same in placebo arm)): no negative effect on cognitive function or motor functions
adverse event: falls (ADP patients [2]; pimavanserin arm, placebo arm 23.1%): 23.3%
adverse event: urinary tract infection (ADP patients [2]; pimavanserin arm, placebo arm 27.5%): 22.2%
improvement on the Agitation/Aggression subscale (Domain C) of the NPI-NH (ADP patients [3]): 1.13 points
